# Reference: publication PMC3037034 (ACS Medicinal Chemistry Letters, 2010)
# Tests used:
# human COX-2 = target: T1, human COX-2 (Homo sapiens, UniProt P35354); experiment: purified COX-2 inhibition, TLC assay; type: biochemical; details: for COX-2 inhibitory activity (in words): purified COX-2
# T1 sequence (P35354 18-604): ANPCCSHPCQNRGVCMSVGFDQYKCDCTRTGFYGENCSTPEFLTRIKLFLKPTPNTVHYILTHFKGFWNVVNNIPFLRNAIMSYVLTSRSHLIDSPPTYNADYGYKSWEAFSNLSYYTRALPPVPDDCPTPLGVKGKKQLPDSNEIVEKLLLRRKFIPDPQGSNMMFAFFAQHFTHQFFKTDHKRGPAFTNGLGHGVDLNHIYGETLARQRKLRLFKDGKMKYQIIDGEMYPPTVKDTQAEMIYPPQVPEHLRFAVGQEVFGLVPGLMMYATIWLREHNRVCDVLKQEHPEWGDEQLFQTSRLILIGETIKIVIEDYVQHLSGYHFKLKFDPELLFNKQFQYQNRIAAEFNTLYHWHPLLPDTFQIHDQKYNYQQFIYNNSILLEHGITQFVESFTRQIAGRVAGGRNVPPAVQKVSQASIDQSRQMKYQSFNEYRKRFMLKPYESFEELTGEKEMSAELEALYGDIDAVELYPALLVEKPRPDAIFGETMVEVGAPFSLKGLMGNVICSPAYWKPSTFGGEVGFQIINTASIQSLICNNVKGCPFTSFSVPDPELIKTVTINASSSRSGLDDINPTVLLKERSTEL
# ovine COX-1 = target: T2, ovine COX-1 (Ovis aries, UniProt P05979); experiment: purified COX-1 inhibition, TLC assay; type: biochemical; details: at concentrations up to 5 μM
# T2 sequence (P05979 25-600): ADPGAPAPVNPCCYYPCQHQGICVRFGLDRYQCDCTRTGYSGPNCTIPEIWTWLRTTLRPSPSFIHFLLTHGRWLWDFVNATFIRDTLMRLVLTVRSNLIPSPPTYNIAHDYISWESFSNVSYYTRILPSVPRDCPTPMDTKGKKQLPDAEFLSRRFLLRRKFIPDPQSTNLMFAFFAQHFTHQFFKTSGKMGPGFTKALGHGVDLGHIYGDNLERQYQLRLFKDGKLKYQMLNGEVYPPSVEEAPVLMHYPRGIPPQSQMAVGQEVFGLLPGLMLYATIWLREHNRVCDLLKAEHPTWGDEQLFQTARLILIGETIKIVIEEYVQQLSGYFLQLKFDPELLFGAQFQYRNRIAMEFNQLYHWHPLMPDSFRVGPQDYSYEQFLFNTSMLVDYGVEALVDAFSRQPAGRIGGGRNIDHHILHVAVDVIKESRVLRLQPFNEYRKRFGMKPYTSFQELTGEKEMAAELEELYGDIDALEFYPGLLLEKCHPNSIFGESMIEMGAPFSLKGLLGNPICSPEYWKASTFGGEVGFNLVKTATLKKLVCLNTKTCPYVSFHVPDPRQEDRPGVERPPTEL
Compound,IC50 (human COX-2) [nM],COX-2 inhibitory activity (in words) (human COX-2),inhibition of COX-1 (in words) (ovine COX-1)
NS(=O)(=O)c1ccc(-n2nc(CCC(=O)O)cc2-c2ccc(I)cc2)cc1 [compound 6],> 4000,inactive,
COC(=O)c1cc(-c2cccc(I)c2)n(-c2ccc(S(N)(=O)=O)cc2)n1 [compound 2],3800,,
CS(=O)(=O)c1ccc(-n2nc(C(F)(F)F)cc2-c2cccc(I)c2)cc1 [compound 7],320,,
"CS(=O)(=O)c1ccc(-n2nc(C(F)(F)F)cc2-c2ccc(I)cc2)cc1 [compound 8, 5-(4-iodophenyl)-1-{4-(methylsulfonyl)phenyl}-3-(trifluoromethyl)-1H-pyrazole]",50,,without inhibition
COC(=O)c1cc(-c2cccc(I)c2)n(-c2ccc(S(C)(=O)=O)cc2)n1 [compound 9],> 4000,,
NS(=O)(=O)c1ccc(-n2nc(CCC(=O)O)cc2-c2cccc(I)c2)cc1 [compound 5],> 4000,inactive,

# The next lines start with the values.
IC50 (human COX-2) [nM],COX-2 inhibitory activity (in words) (human COX-2),inhibition of COX-1 (in words) (ovine COX-1),Compound
260,,,CCOC(=O)c1cc(-c2ccc(I)cc2)n(-c2ccc(S(N)(=O)=O)cc2)n1 [compound 4]
560,,,COC(=O)c1cc(-c2ccc(I)cc2)n(-c2ccc(S(N)(=O)=O)cc2)n1 [compound 3]
3000,,,COC(=O)c1cc(-c2ccc(I)cc2)n(-c2ccc(S(C)(=O)=O)cc2)n1 [compound 10]
